Assay results published in patent US8841343B2, “Composition for repelling mosquitoes” (Bio & Hnt, Inc., priority 2006, dated 2014).
Values joined by “and” are separate entries in the source; they are usually repeats but may differ in a detail not shown here. Equal values may be shown once.

System: Aedes aegypti
Experiment: Examination of repellent activity using skin test (treated human forearm in cage of about 100 mated female mosquitoes)
Type: in vivo
Conditions: for Effective repellency duration (hour) (mean ± standard deviation): maximum measurement time 12 hours
From the text: Citronellic acid and geranic acid, which are used in the present invention, are commercially available or can directly be synthesized. In this embodiment, products of Aldrich Co. (product names are respectively Citronellic acid and Geranic acid) were purchased and used as citronellic acid and geranic acid. Purities of the above two compounds were examined using a gas chromatograph (GC) and a gas chromatograph-mass spectrometry (GC-MS). The compounds having purity of 99.5% or greater were only used. Respective ingredients of the above compounds were added to isopropyl alcohol of 91% to make test samples consisting of a solution in the concentration of 0.5 to 50%. The samples were used for mosquito repellent efficacy experiments.
The test samples manufactured as above underwent repellent effective experiments with respect to Aedes which is a main mosquito group attacking human.
In this embodiment, Aedes aegypti was used as test mosquitoes. The Aedes aegypti was supplied from Korea Research Institute of Bioscience and Biotechnology and reared indoor from generation to generation.
The larvae of the Aedes aegypti were reared in a plastic container of 22×14×7 cm containing distilled water with small amount of one-to-one mixture of chicken feed and yeast. Fresh mosquito pupae were transferred into a paper cup containing water and then placed in a transparent rearing cage to emerge as adults. Here, the rearing cage was constructed with metal net. Males and females of the freshly emerged mosquitoes were transferred to a rearing cage at one-to-one ratio, and left for two or three days for mating. The female mosquitoes were then used for repellency tests. Eight percent (8%) sugar water was supplied for the adult mosquitoes. The following rearing conditions were maintained: light condition of 16 h:8 h (day:night), temperature of 27±2° C., and relative humidity of 80±10%.
In order to examine effectiveness of the mosquito repellent of the prepared sample solutions, one (1) ml of a sample solution was uniformly applied, using a metal rod, on a forearm of a volunteer human test subject between wrist and elbow. Thereafter, the arm treated with the test solution was inserted in a bioassay cage, constructed with Plexiglass of 50×50×50 cm containing approximately 100 mated female mosquitoes. The number of mosquitoes trying to bite was recorded for three minutes in every thirty minutes for up to 4 hours or in every hour for up to 12 hours. The time required to get the arm bitten by two cumulative mosquitoes was regarded as effective repellency duration. A net window of 40×40 cm was present at each side and top of the Plexiglass bioassay cage to allow air ventilation. A 15×15 cm hole was prepared at the front side of the Plexiglass bioassay cage and a long net sleeve was attached to the hole so that the test arm could be put into the cage for repellency test.
At the beginning of each repellency test, an arm treated with no solvent was placed in the bioassay cage containing mosquitoes, in order to examine blood feeding activity of the mated female test mosquitoes. The repellency tests with the test solutions were carried out only when the arm was bitten by at least two mosquitoes for initial three minutes.
Repellent activity against Aedes was examined in accordance with the aforementioned method using the samples which respectively contain citronellic acid and geranic acid. Also, mosquito repellent activity was measured with solutions which contain DEET and Picadirin, wherein the DEET and Picadirin are commercially available mosquito repellents which are currently recommended by the Center for Disease Control of the United States.
In Table 4 to Table 6, the repellent efficiency was calculated using the following Equation 1.

[1] = 10% (0.25 mg/cm^3), 120 minutes
[2] = 10% (0.25 mg/cm^3), 150 minutes
[3] = 10% (0.25 mg/cm^3), 180 minutes
[4] = 10% (0.25 mg/cm^3), 210 minutes
[5] = 10% (0.25 mg/cm^3), 240 minutes
[6] = concentration 2% (0.05 mg/cm^3), time until arm bitten by two cumulative mosquitoes
[7] = concentration 10% (0.25 mg/cm^3), time until two cumulative bites, maximum measurement time 240 minutes

SMILES: CC(C)=CCCC(C)CC(=O)O (racemic) [Citronellic acid, citronellic acid]
- Repellent efficiency (%) per time (minutes) (2% (0.05 mg/cm^3), 30 minutes): 100%
- Repellent efficiency (%) per time (minutes) (2% (0.05 mg/cm^3), 60 minutes): 84.7%
- Repellent efficiency (%) per time (minutes) (2% (0.05 mg/cm^3), 90 minutes): 71.3%
- Repellent efficiency (%) per time (minutes) (2% (0.05 mg/cm^3), 120 minutes): 56.4%
- Repellent efficiency (%) per time (minutes) (2% (0.05 mg/cm^3), 150 minutes): 37.8%
- Repellent efficiency (%) per time (minutes) (2% (0.05 mg/cm^3), 180 minutes): 15.2%
- Repellent efficiency (%) per time (minutes) (2% (0.05 mg/cm^3), 210 minutes): 7.4%
- Repellent efficiency (%) per time (minutes) (2% (0.05 mg/cm^3), 240 minutes): 0%
- Repellent efficiency (%) per time (minutes) (10% (0.25 mg/cm^3), 30 minutes): 100%
- Repellent efficiency (%) per time (minutes) (10% (0.25 mg/cm^3), 60 minutes): 100%
- Repellent efficiency (%) per time (minutes) (10% (0.25 mg/cm^3), 90 minutes): 100%
- Repellent efficiency (%) per time (minutes) [1]: 100%
- Repellent efficiency (%) per time (minutes) [2]: 100%
- Repellent efficiency (%) per time (minutes) [3]: 85.7%
- Repellent efficiency (%) per time (minutes) [4]: 71.4%
- Repellent efficiency (%) per time (minutes) [5]: 57.1%
- Repellent efficiency (%) per time (hours) (15% (0.375 mg/cm^3), 1 hour): 100%
- Repellent efficiency (%) per time (hours) (15% (0.375 mg/cm^3), 2 hours): 75%
- Repellent efficiency (%) per time (hours) (15% (0.375 mg/cm^3), 3 hours): 75%
- Repellent efficiency (%) per time (hours) (15% (0.375 mg/cm^3), 4 hours): 75%
- Repellent efficiency (%) per time (hours) (15% (0.375 mg/cm^3), 5 hours): 50%
- Repellent efficiency (%) per time (hours) (15% (0.375 mg/cm^3), 6 hours): 50%
- Repellent efficiency (%) per time (hours) (15% (0.375 mg/cm^3), 7 hours): 37.5%
- Repellent efficiency (%) per time (hours) (15% (0.375 mg/cm^3), 8 hours): 37.5%
- Repellent efficiency (%) per time (hours) (15% (0.375 mg/cm^3), 9 hours): 25%
- Repellent efficiency (%) per time (hours) (30% (0.75 mg/cm^3), 1 hour): 100%
- Repellent efficiency (%) per time (hours) (30% (0.75 mg/cm^3), 2 hours): 87.5%
- Repellent efficiency (%) per time (hours) (30% (0.75 mg/cm^3), 3 hours): 75%
- Repellent efficiency (%) per time (hours) (30% (0.75 mg/cm^3), 4 hours): 75%
- Repellent efficiency (%) per time (hours) (30% (0.75 mg/cm^3), 5 hours): 75%
- Repellent efficiency (%) per time (hours) (30% (0.75 mg/cm^3), 6 hours): 62.5%
- Repellent efficiency (%) per time (hours) (30% (0.75 mg/cm^3), 7 hours): 62.5%
- Repellent efficiency (%) per time (hours) (30% (0.75 mg/cm^3), 8 hours): 62.5%
- Repellent efficiency (%) per time (hours) (30% (0.75 mg/cm^3), 9 hours): 62.5%
- Repellent efficiency (%) per time (hours) (30% (0.75 mg/cm^3), 10 hours): 50%
- Repellent efficiency (%) per time (hours) (30% (0.75 mg/cm^3), 11 hours): 50%
- Repellent efficiency (%) per time (hours) (30% (0.75 mg/cm^3), 12 hours): 50%
- Repellent efficiency (%) per time (hours) (50% (1.25 mg/cm^3), 1 hour): 100%
- Repellent efficiency (%) per time (hours) (50% (1.25 mg/cm^3), 2 hours): 100%
- Repellent efficiency (%) per time (hours) (50% (1.25 mg/cm^3), 3 hours): 100%
- Repellent efficiency (%) per time (hours) (50% (1.25 mg/cm^3), 4 hours): 100%
- Repellent efficiency (%) per time (hours) (50% (1.25 mg/cm^3), 5 hours): 93.3%
- Repellent efficiency (%) per time (hours) (50% (1.25 mg/cm^3), 6 hours): 86.7%
- Repellent efficiency (%) per time (hours) (50% (1.25 mg/cm^3), 7 hours): 86.7%
- Repellent efficiency (%) per time (hours) (50% (1.25 mg/cm^3), 8 hours): 86.7%
- Repellent efficiency (%) per time (hours) (50% (1.25 mg/cm^3), 9 hours): 80%
- Repellent efficiency (%) per time (hours) (50% (1.25 mg/cm^3), 10 hours): 73.3%
- Repellent efficiency (%) per time (hours) (50% (1.25 mg/cm^3), 11 hours): 73.3%
- Repellent efficiency (%) per time (hours) (50% (1.25 mg/cm^3), 12 hours): 73.3%
- repellency (in words) (at the level of 0.0125 mg/cm^3): did not represent any repellency
- time for which repellent efficiency of 100% was shown (at the level of 0.05 mg/cm^3): 30 min
- time for which repellent efficiency of 100% was shown (at the level of 0.25 mg/cm^3): 150 min
- Effective repellency duration (minute) (mean ± standard deviation) (concentration 0.5% (0.0125 mg/cm^3), time until arm bitten by two cumulative mosquitoes): 0 ± 0 min
- Effective repellency duration (minute) (mean ± standard deviation) [6]: 60 ± 0 min
- Effective repellency duration (minute) (mean ± standard deviation) [7]: 240 ± 0 min
- Effective repellency duration (minute) (mean ± standard deviation) (concentration 10% (0.25 mg/cm^3), time until two cumulative bites, maximum measurement time 240 minutes, listed as citronellic acid): 240 min
- Effective repellency duration (hour) (mean ± standard deviation) (concentration 15% (0.375 mg/cm^3)): 5.7 ± 2.03 h
- Effective repellency duration (hour) (mean ± standard deviation) (concentration 30% (0.75 mg/cm^3)): 9.3 ± 1.76 h
- Effective repellency duration (hour) (mean ± standard deviation) (concentration 30% (0.75 mg/cm^3), listed as citronellic acid): 9.3 h
- Effective repellency duration (hour) (mean ± standard deviation) (concentration 50% (1.25 mg/cm^3)): 9.3 ± 1.76 h
- Effective repellency duration (hour) (mean ± standard deviation) (concentration 50% (1.25 mg/cm^3), listed as citronellic acid): 9.3 h
- repellent efficiency (for 8 hours at the level of 1.25 mg/cm^3): ~90%

SMILES: CCN(CC)C(=O)c1cccc(C)c1 [DEET, N,N-diethyl-m-toluamide, reference compound]
- Repellent efficiency (%) per time (minutes) (2% (0.05 mg/cm^3), 30 minutes): 100%
- Repellent efficiency (%) per time (minutes) (2% (0.05 mg/cm^3), 60 minutes): 0%
- Repellent efficiency (%) per time (minutes) (2% (0.05 mg/cm^3), 90 minutes): 0%
- Repellent efficiency (%) per time (minutes) (2% (0.05 mg/cm^3), 120 minutes): 0%
- Repellent efficiency (%) per time (minutes) (2% (0.05 mg/cm^3), 150 minutes): 0%
- Repellent efficiency (%) per time (minutes) (2% (0.05 mg/cm^3), 180 minutes): 0%
- Repellent efficiency (%) per time (minutes) (2% (0.05 mg/cm^3), 210 minutes): 0%
- Repellent efficiency (%) per time (minutes) (2% (0.05 mg/cm^3), 240 minutes): 0%
- Repellent efficiency (%) per time (minutes) (10% (0.25 mg/cm^3), 30 minutes): 100%
- Repellent efficiency (%) per time (minutes) (10% (0.25 mg/cm^3), 60 minutes): 100%
- Repellent efficiency (%) per time (minutes) (10% (0.25 mg/cm^3), 90 minutes): 100%
- Repellent efficiency (%) per time (minutes) [1]: 100%
- Repellent efficiency (%) per time (minutes) [2]: 87.5%
- Repellent efficiency (%) per time (minutes) [3]: 81.3%
- Repellent efficiency (%) per time (minutes) [4]: 78.1%
- Repellent efficiency (%) per time (minutes) [5]: 71.9%
- time for which repellent efficiency of 100% was shown (at the level of 0.25 mg/cm^3): 120 min
- Effective repellency duration (minute) (mean ± standard deviation) [6]: 70 min and 70 ± 10.0 min
- Effective repellency duration (minute) (mean ± standard deviation) [7]: 218 min and 218 ± 10.8 min
